# Reference: patent US20260262643A1, “HERBICIDAL BENZOXAZINES” (FMC CORPORATION, priority 2022, published 2026)
# Experiments:
# barnyardgrass [1] = experiment: Test C preemergence; assay type: in vivo, Echinochloa crusgalli; conditions: 0 to 100 scale (0 no effect, 100 complete control); for Plant response rating, Barnyardgrass: Preemergence, 500 g ai/ha, visual rating after 10 days; for Barnyardgrass plant response rating: Test C, preemergence, 125 g ai/ha
# Summary of the method: (§1)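 Soil-applied (pre) and foliar (post, 1–2 leaf, 2–10 cm) sprays; surfactant-containing non-phytotoxic solvent vehicle; loam/sand substrate. Readout: visual % control at 10 d, greenhouse, versus untreated.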
# blackgrass [2] = experiment: Test C preemergence; assay type: in vivo, Alopecurus myosuroides; conditions: 0 to 100 scale (0 no effect, 100 complete control); for Plant response rating, Blackgrass: Preemergence, 500 g ai/ha, visual rating after 10 days; for Blackgrass plant response rating: Test C, preemergence, 125 g ai/ha
# Summary of the method: as §1
# corn [3] = experiment: Test C preemergence; assay type: in vivo, Zea mays; conditions: 0 to 100 scale (0 no effect, 100 complete control); for Corn plant response rating: preemergence
# Summary of the method: as §1
# green foxtail [4] = experiment: Test C preemergence; assay type: in vivo, Setaria viridis; conditions: 0 to 100 scale (0 no effect, 100 complete control); for Foxtail, Green plant response rating: preemergence
# Summary of the method: as §1
# kochia [5] = experiment: Test C preemergence; assay type: in vivo, Bassia scoparia; conditions: 0 to 100 scale (0 no effect, 100 complete control); for Kochia plant response rating: preemergence
# Summary of the method: as §1
# oat, wild [6] = experiment: Test C preemergence; assay type: in vivo, Avena fatua; conditions: 0 to 100 scale (0 no effect, 100 complete control); for Oat, Wild plant response rating: preemergence
# Summary of the method: as §1
# pigweed, palmer [7] = experiment: Test C preemergence; assay type: in vivo, Amaranthus palmeri; conditions: 0 to 100 scale (0 no effect, 100 complete control); for Pigweed, Palmer plant response rating: preemergence
# Summary of the method: as §1
# ragweed [8] = experiment: Test C preemergence; assay type: in vivo, Ambrosia artemisiifolia; conditions: 0 to 100 scale (0 no effect, 100 complete control); for Ragweed plant response rating: preemergence
# Summary of the method: as §1
# ryegrass, Italian [9] = experiment: Test C preemergence; assay type: in vivo, Lolium multiflorum; conditions: 0 to 100 scale (0 no effect, 100 complete control); for Ryegrass, Italian plant response rating: preemergence
# Summary of the method: as §1
# soybean [10] = experiment: Test C preemergence; assay type: in vivo, Glycine max; conditions: 0 to 100 scale (0 no effect, 100 complete control); for Soybean plant response rating: preemergence
# Summary of the method: as §1
# wheat [11] = experiment: Test C preemergence; assay type: in vivo, Triticum aestivum; conditions: 0 to 100 scale (0 no effect, 100 complete control); for Wheat plant response rating: preemergence
# Summary of the method: as §1
# barnyardgrass [12] = experiment: Test C postemergence; assay type: in vivo, Echinochloa crusgalli; conditions: 10 days
# Summary of the method: as §1
# blackgrass [13] = experiment: Test C postemergence; assay type: in vivo, Alopecurus myosuroides; conditions: 10 days
# Summary of the method: as §1
# corn [14] = experiment: Test C postemergence; assay type: in vivo, Zea mays; conditions: 10 days
# Summary of the method: as §1
# green foxtail [15] = experiment: Test C postemergence; assay type: in vivo, Setaria viridis; conditions: 10 days
# Summary of the method: as §1
# kochia [16] = experiment: Test C postemergence; assay type: in vivo, Bassia scoparia; conditions: 10 days
# Summary of the method: as §1
# oat, wild [17] = experiment: Test C postemergence; assay type: in vivo, Avena fatua; conditions: 10 days
# Summary of the method: as §1
# pigweed, palmer [18] = experiment: Test C postemergence; assay type: in vivo, Amaranthus palmeri; conditions: 10 days
# Summary of the method: as §1
# ragweed [19] = experiment: Test C postemergence; assay type: in vivo, Ambrosia artemisiifolia; conditions: 10 days
# Summary of the method: as §1
# ryegrass, Italian [20] = experiment: Test C postemergence; assay type: in vivo, Lolium multiflorum; conditions: 10 days
# Summary of the method: as §1
# soybean [21] = experiment: Test C postemergence; assay type: in vivo, Glycine max; conditions: 10 days
# Summary of the method: as §1
# wheat [22] = experiment: Test C postemergence; assay type: in vivo, Triticum aestivum; conditions: 10 days
# Summary of the method: as §1
# galium = experiment: Test C postemergence; assay type: in vivo, Galium aparine; conditions: 10 days
# Summary of the method: as §1
# horseweed = experiment: Test C postemergence; assay type: in vivo, Erigeron canadensis; conditions: 10 days
# Summary of the method: as §1
# barnyardgrass [23] = experiment: Test D flooded paddy test; assay type: in vivo, Echinochloa crus-galli; conditions: 250 g ai/ha, applied to paddy water, visual rating after 13 to 14 days, scale 0 to 100 (0 no effect, 100 complete control)
# Summary of the method: (§2)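 At the 2-leaf stage, floodwater 3 cm deep received the test compound; that depth persisted throughout. Plants scored visually 13 to 14 days on, 0 (no effect) to 100 (complete control), dash indicating no result.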
# ducksalad = experiment: Test D flooded paddy test; assay type: in vivo, Heteranthera limosa; conditions: 250 g ai/ha, applied to paddy water, visual rating after 13 to 14 days, scale 0 to 100 (0 no effect, 100 complete control)
# Summary of the method: as §2
# rice = experiment: Test D flooded paddy test; assay type: in vivo, Oryza sativa; conditions: 250 g ai/ha, applied to paddy water, visual rating after 13 to 14 days, scale 0 to 100 (0 no effect, 100 complete control)
# Summary of the method: as §2
# sedge, umbrella = experiment: Test D flooded paddy test; assay type: in vivo, Cyperus difformis; conditions: 250 g ai/ha, applied to paddy water, visual rating after 13 to 14 days, scale 0 to 100 (0 no effect, 100 complete control)
# Summary of the method: as §2
# [24] = Preemergence, 500 g ai/ha, visual rating after 10 days
# [25] = 125 g ai/ha, postemergence, 0 to 100 scale, 0 no effect, 100 complete control
# [26] = Postemergence, 500 g ai/ha, visual 0 to 100 scale (0 no effect, 100 complete control)
smiles,measurement,setting,value
Cc1ccc(-n2cnc(C[S+](C)[O-])n2)cc1C(=O)N1C[C@H](C)Oc2c(Cl)cccc21 (stereo partly drawn) [Compound 224],"Plant response rating, Barnyardgrass",barnyardgrass [1],90
same,Barnyardgrass plant response rating,barnyardgrass [1],40
same,"Plant response rating, Blackgrass",blackgrass [2],70
same,Blackgrass plant response rating,blackgrass [2],20
same,"Plant response rating, Corn",corn [3]; [24],20
same,Corn plant response rating,"corn [3]; Test C, 125 g ai/ha",0
same,"Plant response rating, Foxtail, Green",green foxtail [4]; [24],100
same,"Foxtail, Green plant response rating","green foxtail [4]; Test C, 125 g ai/ha",100
same,"Plant response rating, Kochia",kochia [5]; [24],70
same,Kochia plant response rating,"kochia [5]; Test C, 125 g ai/ha",40
same,"Plant response rating, Oat, Wild","oat, wild [6]; [24]",90
same,"Oat, Wild plant response rating","oat, wild [6]; Test C, 125 g ai/ha",30
same,"Plant response rating, Pigweed, Palmer","pigweed, palmer [7]; [24]",100
same,"Pigweed, Palmer plant response rating","pigweed, palmer [7]; Test C, 125 g ai/ha",90
same,"Plant response rating, Ragweed",ragweed [8]; [24],40
same,Ragweed plant response rating,"ragweed [8]; Test C, 125 g ai/ha",0
same,"Plant response rating, Ryegrass, Italian","ryegrass, Italian [9]; [24]",80
same,"Ryegrass, Italian plant response rating","ryegrass, Italian [9]; Test C, 125 g ai/ha",70
same,"Plant response rating, Soybean",soybean [10]; [24],100
same,Soybean plant response rating,"soybean [10]; Test C, 125 g ai/ha",60
same,"Plant response rating, Wheat",wheat [11]; [24],50
same,Wheat plant response rating,"wheat [11]; Test C, 125 g ai/ha",0
same,"Plant response rating, Barnyardgrass",barnyardgrass [12]; [25],10
same,"Plant response rating, Barnyardgrass",barnyardgrass [12]; [26],50
same,"Plant response rating, Blackgrass",blackgrass [13]; [25],30
same,"Plant response rating, Blackgrass",blackgrass [13]; [26],70
same,"Plant response rating, Corn",corn [14]; [25],50
same,"Plant response rating, Corn",corn [14]; [26],90
same,"Plant response rating, Foxtail, Green",green foxtail [15]; [25],20
same,"Plant response rating, Foxtail, Green",green foxtail [15]; [26],70
same,"Plant response rating, Kochia",kochia [16]; [25],90
same,"Plant response rating, Kochia",kochia [16]; [26],90
same,"Plant response rating, Oat, Wild","oat, wild [17]; [25]",50
same,"Plant response rating, Oat, Wild","oat, wild [17]; [26]",70
same,"Plant response rating, Pigweed, Palmer","pigweed, palmer [18]; [25]",90
same,"Plant response rating, Pigweed, Palmer","pigweed, palmer [18]; [26]",90
same,"Plant response rating, Ragweed",ragweed [19]; [25],50
same,"Plant response rating, Ragweed",ragweed [19]; [26],70
same,"Plant response rating, Ryegrass, Italian","ryegrass, Italian [20]; [25]",50
same,"Plant response rating, Ryegrass, Italian","ryegrass, Italian [20]; [26]",100
same,"Plant response rating, Soybean",soybean [21]; [25],100
same,"Plant response rating, Soybean",soybean [21]; [26],100
same,"Plant response rating, Wheat",wheat [22]; [25],20
same,"Plant response rating, Wheat",wheat [22]; [26],60
same,"Plant response rating, Galium",galium; [25],100
same,"Plant response rating, Horseweed",horseweed; [25],30
same,"Plant response rating, Horseweed",horseweed; [26],50
same,"Plant response rating, Barnyardgrass (Flood)",barnyardgrass [23],10
same,"Plant response rating, Ducksalad (Flood)",ducksalad,95
same,"Plant response rating, Rice (Flood)",rice,15
same,"Plant response rating, Sedge, Umbrella (Flood)","sedge, umbrella",98
Cc1ccc(-n2cnc(CC3CC3)n2)cc1C(=O)N1C[C@H](C)Oc2c(Cl)cccc21 [Compound 273],"Plant response rating, Barnyardgrass",barnyardgrass [1],100
same,Barnyardgrass plant response rating,barnyardgrass [1],40
same,"Plant response rating, Blackgrass",blackgrass [2],50
same,Blackgrass plant response rating,blackgrass [2],0
same,Corn plant response rating,corn [3]; 500 g ai/ha,10
same,Corn plant response rating,"corn [3]; Test C, 125 g ai/ha",0
same,"Foxtail, Green plant response rating",green foxtail [4]; 500 g ai/ha,100
same,"Foxtail, Green plant response rating","green foxtail [4]; Test C, 125 g ai/ha",100
same,Kochia plant response rating,kochia [5]; 500 g ai/ha,90
same,Kochia plant response rating,"kochia [5]; Test C, 125 g ai/ha",60
same,"Oat, Wild plant response rating","oat, wild [6]; 500 g ai/ha",80
same,"Oat, Wild plant response rating","oat, wild [6]; Test C, 125 g ai/ha",20
same,"Pigweed, Palmer plant response rating","pigweed, palmer [7]; 500 g ai/ha",100
same,"Pigweed, Palmer plant response rating","pigweed, palmer [7]; Test C, 125 g ai/ha",90
same,Ragweed plant response rating,ragweed [8]; 500 g ai/ha,0
same,Ragweed plant response rating,"ragweed [8]; Test C, 125 g ai/ha",0
same,"Ryegrass, Italian plant response rating","ryegrass, Italian [9]; 500 g ai/ha",90
same,"Ryegrass, Italian plant response rating","ryegrass, Italian [9]; Test C, 125 g ai/ha",70
same,Soybean plant response rating,soybean [10]; 500 g ai/ha,70
same,Soybean plant response rating,"soybean [10]; Test C, 125 g ai/ha",10
same,Wheat plant response rating,wheat [11]; 500 g ai/ha,40
same,Wheat plant response rating,"wheat [11]; Test C, 125 g ai/ha",0
same,"Plant response rating, Barnyardgrass",barnyardgrass [12]; [25],30
same,"Plant response rating, Barnyardgrass",barnyardgrass [12]; [26],70
same,"Plant response rating, Blackgrass",blackgrass [13]; [25],10
same,"Plant response rating, Blackgrass",blackgrass [13]; [26],80
same,"Plant response rating, Corn",corn [14]; [25],10
same,"Plant response rating, Corn",corn [14]; [26],30
same,"Plant response rating, Foxtail, Green",green foxtail [15]; [25],40
same,"Plant response rating, Foxtail, Green",green foxtail [15]; [26],90
same,"Plant response rating, Kochia",kochia [16]; [25],70
same,"Plant response rating, Oat, Wild","oat, wild [17]; [25]",0
same,"Plant response rating, Pigweed, Palmer","pigweed, palmer [18]; [25]",90
same,"Plant response rating, Ragweed",ragweed [19]; [25],40
same,"Plant response rating, Ryegrass, Italian","ryegrass, Italian [20]; [25]",0
same,"Plant response rating, Soybean",soybean [21]; [25],100
same,"Plant response rating, Wheat",wheat [22]; [25],10
same,"Plant response rating, Galium",galium; [25],70
same,"Plant response rating, Galium",galium; [26],100
same,"Plant response rating, Horseweed",horseweed; [25],0
same,"Plant response rating, Horseweed",horseweed; [26],40
same,"Plant response rating, Barnyardgrass (Flood)",barnyardgrass [23],0
same,"Plant response rating, Ducksalad (Flood)",ducksalad,15
same,"Plant response rating, Rice (Flood)",rice,0
same,"Plant response rating, Sedge, Umbrella (Flood)","sedge, umbrella",40
